The text below walks through data of patent US6288101A, “Imidazoles with serotonin receptor binding activity” (Virginia Commonwealth University, priority 1999, dated 2001).

In this assay the target is T1, 5-HT1D -like receptor (Oryctolagus cuniculus, UniProt P49144).
T1 construct: Ring segments of the vein (4-5 mm in length) were cut and the endothelium gently removed; from tissue; host or cells: saphenous vein rings, endothelium removed, male New Zealand White rabbit
Nature of the assay: 5-HT1D-like receptor agonist activity: contraction of the rabbit isolated saphenous vein. Also noted: species or system rabbit (New Zealand White). Conditions: rabbit isolated saphenous vein rings, endothelium removed, 37° C., pH 7.4; prazosin, idazoxan and indomethacin (1 μM each) present; read-out: EC50 (concentration of the compound which causes 50% of the maximum contraction effected by it). As for the experimental part:
The saphenous veins from both the left and right side were cleaned of fat and connective tissue and placed in Krebs solution (118 mM NaCl, 11 mM glucose, 25 mM NaHCO3, 4.7 mM KCl, 2.5 mM CaCl2.2H2 O, 1.2 mM KH2 PO4, and 1.2 mM MgSO4.7H2 O. Ring segments of the vein (4-5 mm in length) were cut and the endothelium gently removed. The segments were mounted in 10 mL baths containing Krebs buffer and were constantly aerated with 95% oxygen/5% carbon dioxide and maintained at 37° C. and pH 7.4 in order to record the isometric tension. A resting tension of 2.5 g was applied and the tissues allowed to equilibrate for 90 minutes, with washing every 15-20 minutes. After the equilibrium period, the rings were depolarized by the addition of two aliquots of KCl (80 mM final concentration) separated by a 20 minute washing period. The tissues were then exposed to prazosin, idazoxan and indomethacin (all 1 μM final concentration) for 30 minutes in order to exclude the actions of α1 - and α2 -adrenergic receptors and prostaglandin receptors respectively. […] Responses were calculated as a percentage of the maximal contraction evoked by 80 mM KCl. Only one compound was tested per preparation.
EC50 represents the concentration of the compound which causes 50% of the maximum contraction effected by it.

T1 sequence (P49144 whole entry): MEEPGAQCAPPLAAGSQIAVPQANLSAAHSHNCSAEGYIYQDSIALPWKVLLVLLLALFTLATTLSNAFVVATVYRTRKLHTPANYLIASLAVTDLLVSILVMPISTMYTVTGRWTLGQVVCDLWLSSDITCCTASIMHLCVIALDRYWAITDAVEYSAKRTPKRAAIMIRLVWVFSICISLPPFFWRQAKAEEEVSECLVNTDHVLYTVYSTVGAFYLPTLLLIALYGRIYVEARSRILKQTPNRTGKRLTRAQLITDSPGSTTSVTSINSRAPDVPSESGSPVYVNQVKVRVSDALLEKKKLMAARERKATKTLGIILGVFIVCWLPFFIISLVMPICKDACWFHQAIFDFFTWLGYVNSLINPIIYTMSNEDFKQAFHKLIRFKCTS

Turning to `Cc1cc(C(C)(C)C)cc(C)c1Cc1ncc[nH]1`, the EC50 amounted to 0.13 µM.
Then `Cc1cc(Br)cc(C)c1Cc1ncc[nH]1`, with 9.3 µM.
